Results on five molecules are retold here after US20260284049A1 (BRISTOL-MYERS SQUIBB COMPANY, priority 2023, published 2026).

Like-named read-outs stand apart in the source and are kept apart here.

For data set [1], the target named is Factor XI Activity (Homo sapiens, UniProt P03951). The data set is described as follows: AXIOMATIC-TKR: FXI clotting activity (FXI:c). Details: dose or concentration left out as unconfirmed. Format: in vivo. Here is the method: As used herein, “Factor XI Clotting Activity” is determined utilizing an aPTT-based 1-stage clotting time assay. Serial dilutions of normal pooled plasma are mixed with FXI-depleted plasma and the clotting times are measured according to standard aPTT protocol, to establish a reference range. Subject test plasma is treated in the same way and compared with the reference plasma.
Factor XI Activity, sequence (P03951 19-625): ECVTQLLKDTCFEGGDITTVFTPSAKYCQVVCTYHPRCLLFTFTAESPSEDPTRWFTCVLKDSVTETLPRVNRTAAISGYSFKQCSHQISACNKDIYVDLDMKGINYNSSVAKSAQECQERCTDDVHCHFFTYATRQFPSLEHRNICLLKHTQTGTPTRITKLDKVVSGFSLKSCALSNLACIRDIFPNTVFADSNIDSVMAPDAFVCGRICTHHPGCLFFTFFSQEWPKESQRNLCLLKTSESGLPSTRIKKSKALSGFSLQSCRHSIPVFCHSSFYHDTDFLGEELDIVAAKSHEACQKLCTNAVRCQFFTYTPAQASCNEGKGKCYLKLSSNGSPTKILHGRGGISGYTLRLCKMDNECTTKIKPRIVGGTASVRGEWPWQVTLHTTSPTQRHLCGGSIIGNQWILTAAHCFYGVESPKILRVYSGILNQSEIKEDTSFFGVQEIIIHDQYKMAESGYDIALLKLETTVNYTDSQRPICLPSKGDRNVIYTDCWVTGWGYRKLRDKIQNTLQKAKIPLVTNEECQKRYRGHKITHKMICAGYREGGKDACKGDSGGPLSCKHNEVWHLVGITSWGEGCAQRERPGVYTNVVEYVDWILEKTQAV
In some embodiments, the Factor XI Clotting Activity is measured as follows: Factor XI (FXI) activity is measured using a modification of the activated partial thromboplastin time (aPTT) using Actin FS (Siemens Healthcare) on the Siemens BCS® XP analyzer. […] The reference standard, at approximately 100%, is diluted by the BCS® XP analyzer in saline to generate pre-selected calibration levels of FXI. The calibration curve is plotted with FXI activity in percent (%) on the x-axis and clotting time in seconds on the y-axis. A log/lin regression curve fit is used. […] APTT reagent (Actin FS) is added and the mixture is incubated. Following incubation, calcium chloride is added to the mixture and the time to clot formation (measured optically) is compared to the time on the calibration curve. Samples are tested at the base dilution (1:10) prepared by the BCS® XP in saline.
(§1) Assessment of the dose-response for the occurrence of any bleeding was a secondary objective.
(§2) PD analyses were performed on the PD analysis set, defined as subjects who had at least one valid blood sample drawn for PD. Descriptive statistics (N, mean, SD, median, range, CV (%) and IQ range) were used to summarize PD response at each nominal sampling time point by treatment group. Changes from baseline were summarized when applicable. PD response outside of limit of quantitation were not to be imputed and were to be noted in the summary statistics.

Data set [2] has as its system activated partial thromboplastin time (aPTT). The data set is described as follows: AXIOMATIC-TKR: aPTT and ratio to baseline. Format: in vivo, human. How it is done: In some embodiments, aPTT is measured as follows: Plasma samples are incubated with Actin FS aPTT assay reagent containing a standard amount of phospholipid and contact activator (ellagic acid) which activates the intrinsic coagulation pathway. After incubating for 3 minutes, calcium chloride is added to initiate coagulation and formation of a fibrin clot is measured optically. The time to clot formation (measured in seconds) is reported as the Activated Partial Thromboplastin Time (aPTT). […]
as §2

The test system of data set [3] is participants undergoing primary unilateral elective TKR surgery.
Data set [4] relates to participants with ischemic stroke or TIA. The conditions noted are these: for Hemorragic Stroke Incidence Rate (n/N %) / Subjects With Hemorragic Stroke n: up to Day 21. The text has this: The study enrolled participants ≥40 years of age who had ischemic stroke or TIA. Ischemic stroke was defined as a neurological deficit attributable to a non-lacunar, acute brain infarction detected by neuroimaging and relevant to the clinical symptoms and National Institutes of Health Stroke Score (NIHSS) ≤7 at the time of randomization. TIA was defined as acute onset neurological deficit attributable to focal ischemia of the brain by history or examination, with complete resolution of the deficit and no brain infarction on neuroimaging and ABCD score ≥6 or presence of motor symptoms. Evidence of relevant intracranial or cervical arterial atherosclerotic plaque, ulceration or thrombus in a feeding artery documented by imaging was required regardless of whether the index event was ischemic stroke or TIA, and all participants were required to have a Modified Rankin Score ≤3 before the index event. […] Following informed consent, participants received ASA 100 mg QD and a single loading dose of clopidogrel 300 mg if not already given as standard of care. […] A second MRI was performed on Day 90±6 days. All participants were required to remain on study treatment until the Day 90 MRI was performed up to Day 96.
From 27 Jan. […] The 200 mg BID arm was opened on 5 Jun.

For data set [5], the system named is thrombin generation. As to the kind of experiment: AXIOMATIC-TKR: Thrombin Generation Assay (TGA): peak height, ETP, lag time. The conditions noted are these: Milvexian 25 mg QD; Day 10-14. The class given is in vivo, human.
From the text: (§3) (AXIOMATIC-TKR Phase II).
As used herein, “Thrombin Generation Assay (TGA)” is a global coagulation assay that evaluates the thrombogenic capacity of a plasma sample and has been proposed that it may better reflect prothrombotic or hemorrhagic states than conventional clotting assays. In the traditional TGA, coagulation of citrated plasma is initiated through the extrinsic pathway by adding tissue factor, phospholipids, and calcium. For this study, in the in-vitro thrombin generation assay (TGA) using human platelet-rich plasma, and a kaolin slurry was used instead to initiate coagulation through the contact activation pathway. Thrombin generation is continuously monitored through the product released by cleavage of a thrombin-specific fluorogenic substrate.
as §1, §2

Data set [6] concerns cardiac potassium (hERG/IKr) channel. The data set is described as follows: In vitro cardiac potassium channel current inhibition. The class given is cell-based. The conditions noted are these: concentrations that greatly exceed unbound plasma concentrations.
Data set [7] can be described thus: clinical. The following applies: human, in vivo, po, median Tmax, healthy volunteers.
A short description of data set [8]: clinical. The following applies: human, in vivo, po.
From the text: as §3, §1

The subject of data set [9] is QT/QTc interval (cardiac repolarization). The class given is in vivo, human. The text has this:
The upper bound of two-sided 90% CI for the largest difference in mean change from baseline in QTc intervals (ΔQTc; […].
A total of 66 participants were enrolled in the study and randomly assigned to 1 of 4 possible treatment sequences. […].
Forty-five (68.2%) participants completed all 4 periods with study intervention as planned. […]

In data set [10] the test system is VTE prevention in orthopedic surgery. The conditions noted are these: cited from earlier work; for VTE prevention in orthopedic surgery vs enoxaparin 40 mg once daily: historical Phase 3 studies; for bleeding: Phase 2 orthopedic surgery studies and in combination with antiplatelets after an ACS.
The mark [11] stands for this setting: 40 mg QD subcutaneous, Day 1 2 h.
Setting [12] is: 40 mg QD subcutaneous, Day 1 4 h.
Setting [13] is: 40 mg QD subcutaneous, Day 2 Predose.
Where [14] appears, read: 40 mg QD subcutaneous, Day 4 4 h.
The mark [15] stands for this setting: 40 mg QD subcutaneous, Day 4 Predose.
The mark [16] stands for this setting: 40 mg QD subcutaneous, Day 10-14.

As to enoxaparin, the “Factor XI Activity Measured Value, Mean” value in data set [1] (Day 1 4 h) was 1.06 fraction of 1; in data set [1] (Day 10-14), 1.36 fraction of 1. The entries for the “Factor XI Activity Measured Value, Med” value in data set [1] (Day 1 4 h) and in [1] (Day 10-14) were 1.07 fraction of 1 and 1.39 fraction of 1, respectively. Also, the “aPTT Measured Value, Mean” value in data set [2] (setting [11]) came out at 37.03 s; in data set [2] (setting [12]), 29.14 s; in [2] (setting [13]) it was 28.11 s; in data set [2] (setting [14]), 27.37 s; in data set [2] (setting [15]), 26.03 s; in data set [2] (setting [16]) it was 27.8 s. For the same molecule, the “aPTT Measured Value, Med” value in data set [2] (setting [11]) amounted to 27.5 s; in [2] (setting [12]) it was 27.75 s; in data set [2] (setting [13]) it was 27.4 s; in [2] (setting [14]), 26.1 s; in data set [2] (setting [15]), 25.8 s; in data set [2] (setting [16]) it was 25.9 s. Besides, the “Total VTE, participants n” value in data set [3] (40 mg QD subcutaneous (N=252)) was 54. Moreover, the “total venous thromboembolism (VTE) rate” value in data set [3] (40 mg once daily subcutaneous) is 21.4%.
`C[C@@H]1CCC[C@H](n2cnc(-c3cc(Cl)ccc3-n3cc(Cl)nn3)cc2=O)c2cc(ccn2)-c2c(cnn2C(F)F)NC1=O` [milvexian, (5R,9S)-9-(4-(5-chloro-2-(4-chloro-1H-1,2,3-triazol-1-yl)phenyl)-6-oxopyrimidin-1(6H)-yl)-2^1-(difluoromethyl)-5-methyl-2^1H-3-aza-1(4,2)-pyridina-2(5,4)-pyrazolacyclonaphan-4-one]: the “Hemorragic Stroke Incidence Rate (n/N %)” value in data set [4] (25 mg BID), in [4] (25 mg QD), in data set [4] (50 mg BID), in data set [4] (100 mg BID) and in [4] (200 mg BID) was 0 (0) % each time. Moreover, the “Subjects With Hemorragic Stroke n” value in data set [4] (25 mg BID), in [4] (25 mg QD), in data set [4] (50 mg BID), in data set [4] (100 mg BID) and in [4] (200 mg BID) was 0 (0) throughout. Also, the “New Ischemic Stroke, MI and All Cause Death: Subjects With Event n” value in data set [4] (25 mg BID, up to Day 90) amounted to 15. Also, the “Ischemic Stroke (n/N %)” value in data set [4] (25 mg QD, up to Day 90) is 4.6%. Besides, the “New Ischemic Stroke, MI and All Cause Death: Subjects With Event (n/N %)” value in [4] (25 mg QD, up to Day 90) stood at 5.2%; in [4] (100 mg BID, up to Day 90) it was 5.2%; in [4] (200 mg BID, up to Day 90), 9.4%. Besides, in data set [4] (25 mg twice daily, 95% CI 0.36-1.30), the “HR for clinical ischemic strokes vs placebo” value was determined as 0.69. Moreover, the “rate of early treatment discontinuation” value in [4] (200 mg BID, primarily due to AEs) was 31.6%. Also, the “ETP Lag Time, Measured Value, Med” value in data set [5] came to 10.33 min. Also, the “inhibition of cardiac potassium (hERG/IKr) channel currents” value in data set [6] is listed as “weak to moderate potency”. Moreover, the results for the Tmax in data set [7] (once daily) and in data set [7] (twice daily) were 2 to 3 h and roughly 3 h, respectively. The “aPTT Measured Value, Med” value in data set [2] (50 mg QD, Day 4 4 h) was found to be 52 s. Moreover, in [3] (AXIOMATIC-TKR or AXIOMATIC-SSP), the “dose-response relationship for bleeding events” value is listed as “No dose-response relationship was observed”. The “fatal bleeding and symptomatic intracranial hemorrhage” value in data set [3] (Phase 2 studies) was “No fatal bleeding and no increases in symptomatic intracranial hemorrhage”. The “Total VTE, participants n” value in data set [3] (milvexian BID dose regimens (N=518)) was found to be 63. For the same molecule, the Tmax (in general, the time from dosing to the highest level) at 96 h in data set [8] (Day 4, 25 mg and 100 mg twice daily) is roughly 2 h; in data set [8] (Day 4, 50 mg and 200 mg once daily), roughly 4 h. In data set [9] (100 mg and 200 mg twice daily), the “changes over time in HR, RR interval, PR interval, or QRS width” value is reported as “No consistent or clinically relevant changes”. For the same molecule, the “treatment-emergent QTcF or QTcB >480 ms or changes from baseline >60 ms” value in data set [9] (100 mg and 200 mg twice daily for 4 days) is “No treatment-emergent actual values of QTcF or QTcB >480 ms or changes from baseline >60 ms were observed”. The “upper bound of two-sided 90% CI for the largest ΔΔQTc (QTcF)” value in data set [9] (supratherapeutic 200 mg twice daily as solution) and in data set [9] (therapeutic 100 mg twice daily as capsule) was “less than 10 milliseconds” each time. Moreover, in data set [9] (therapeutic (100 mg) and supratherapeutic (200 mg) doses, ICH E14), the QT/QTc interval prolongation entry is reported as “does not show evidence of QT/QTc interval prolongation of clinical or regulatory concern”.
For `O=C(NC[C@H]1CN(c2ccc(N3CCOCC3=O)cc2)C(=O)O1)c1ccc(Cl)s1` [rivaroxaban], the “VTE prevention in orthopedic surgery vs enoxaparin 40 mg once daily” value in data set [10] (10 mg once daily) is reported as “superior to enoxaparin”. Besides, in data set [10], the bleeding result is “dose-related bleeding”.
`COc1c(N2C[C@@H]3CCCN[C@@H]3C2)c(F)cc2c(=O)c(C(=O)O)cn(C3CC3)c12` [moxifloxacin, reference compound]: the “participants with treatment-emergent change from baseline of QTcB >60 ms” value in data set [9] (single dose of 400 mg) was determined as 1.7%.
As to `COc1ccc(-n2nc(C(N)=O)c3c2C(=O)N(c2ccc(N4CCCCC4=O)cc2)CC3)cc1` [apixaban], the “VTE prevention in orthopedic surgery vs enoxaparin 40 mg once daily” value in data set [10] (2.5 mg twice daily) is on record as “superior to enoxaparin”. Besides, the bleeding result in data set [10] is given as “dose-related bleeding”.
